From the NIST ThermoML archive (doi:10.1021/je7003098)

Conditions: for mass density: 101.33 kPa, Liquid, Pycnometric method; for surface tension liquid-gas: Ring tensiometer

CCCCCCCCCCCCCC[P+](CCCCCC)(CCCCCC)CCCCCC.O=S(=O)([N-]S(=O)(=O)C(F)(F)F)C(F)(F)F
Conditions	mass density [kg/m3]	surface tension liquid-gas [mN/m]
298.15 K	1050.1	–
298.2 K	–	33.08
303 K	–	32.57
303.15 K	1048.3	–
308 K	–	32.15
308.15 K	1045.2	–
313 K	–	31.77
313.15 K	1042	–
318 K	–	31.4
318.15 K	1039.2	–
323.15 K	1035.6	–
323.3 K	–	31.09
327.9 K	–	30.65
328.15 K	1032.9	–
332.9 K	–	30.28
333.15 K	1029.6	–
338.9 K	–	29.68
344.2 K	–	29.45
349.8 K	–	28.93

CCCCCCCCCC[N+](C)(C)C.O=S(=O)([N-]S(=O)(=O)C(F)(F)F)C(F)(F)F
Conditions	mass density [kg/m3]	surface tension liquid-gas [mN/m]
298.15 K	1226.3	–
300.96 K	–	35.42
302.95 K	–	35.12
303.15 K	1222.2	–
307.75 K	–	34.81
308.15 K	1218.6	–
312.28 K	–	34.55
313.15 K	1214.7	–
318.08 K	–	34.2
318.15 K	1210.6	–
323.15 K	1206.3	–
324.03 K	–	33.71
328.15 K	1204.7	–
330.53 K	–	33.36
333.15 K	1200.3	–
337.12 K	–	32.82
342.53 K	–	32.51
347.26 K	–	32.23

CCCCCCCC[N+](C)(CCCCCCCC)CCCCCCCC.O=S(=O)([N-]S(=O)(=O)C(F)(F)F)C(F)(F)F
Conditions	mass density [kg/m3]	surface tension liquid-gas [mN/m]
298.15 K	1082.3	–
299.46 K	–	29.06
303.15 K	1080.3	–
303.25 K	–	28.93
308.15 K	1077.3	–
310.18 K	–	28.53
313.15 K	1073.8	–
313.77 K	–	28.23
318.15 K	1073.8	–
318.67 K	–	27.85
321 K	–	27.63
323.15 K	1067.2	–
326.3 K	–	27.18
328.15 K	1063.9	–
329.6 K	–	27.01
333.15 K	1061.1	–
336.79 K	–	26.69

CCCCCC[N+](C)(C)CCC.O=S(=O)([N-]S(=O)(=O)C(F)(F)F)C(F)(F)F
Conditions	mass density [kg/m3]	surface tension liquid-gas [mN/m]
298.15 K	1284.6	–
300.1 K	–	36.74
302 K	–	36.58
303.1 K	–	36.49
303.15 K	1281.6	–
304 K	–	36.42
306 K	–	36.25
308.1 K	–	36.11
308.15 K	1277.5	–
312.3 K	–	35.78
313.15 K	1273.2	–
315.2 K	–	35.55
318 K	–	35.33
318.15 K	1269.9	–
320.6 K	–	35.14
322.6 K	–	35.01
323.15 K	1266	–
328.15 K	1266	–
333.15 K	1258.5	–

CCCCCC[n+]1ccn(C)c1.O=S(=O)([N-]S(=O)(=O)C(F)(F)F)C(F)(F)F
Conditions	surface tension liquid-gas [mN/m]
297.22 K	35.98
301.22 K	35.79
305.48 K	35.54
309.14 K	35.35
312.48 K	35.15
316.28 K	35.03
319.87 K	34.84
323.57 K	34.63
327.48 K	34.45
331.24 K	34.26
334.91 K	34.07
340.92 K	33.76
346.42 K	33.44

CCn1cc[n+](C)c1.O=S(=O)([N-]S(=O)(=O)C(F)(F)F)C(F)(F)F
Conditions	surface tension liquid-gas [mN/m]
298.7 K	41.62
302.05 K	41.38
305.74 K	41.19
309.16 K	41.02
312.6 K	40.87
316.2 K	40.67
319.33 K	40.5
322.63 K	40.39
326.13 K	40.19
331.02 K	39.94

CCCCn1cc[n+](C)c1.F[P-](F)(F)(F)(F)F [1-butyl-3-methylimidazolium hexafluorophosphate]
Conditions	surface tension liquid-gas [mN/m]
298.15 K	47.92
301.32 K	47.71
305.79 K	47.48
309.6 K	47.29
315.44 K	46.92
319.95 K	46.55
325.06 K	46.15
328.68 K	46.04
332.22 K	45.81
335.61 K	45.41

CCn1cc[n+](C)c1.O=S(=O)([O-])C(F)(F)F [1-ethyl-3-methylimidazolium trifluoromethanesulfonate]
Conditions	surface tension liquid-gas [mN/m]
296.28 K	44.46
300.79 K	44.36
304.95 K	44.2
308.14 K	44.07
312.41 K	43.9
317.15 K	43.81
321.93 K	43.64
328.68 K	43.37
333.64 K	43.15
337.82 K	42.99
343.49 K	42.82
347.91 K	42.62
353.56 K	42.49

CCCC[N+](C)(C)C.O=S(=O)([N-]S(=O)(=O)C(F)(F)F)C(F)(F)F [butyltrimethylammonium bis(trifluoromethylsulfonyl)imide]
Conditions	mass density [kg/m3]	surface tension liquid-gas [mN/m]
298.15 K	1374.7	–
298.35 K	–	38.05
302.33 K	–	37.9
303.15 K	1368.6	–
306.15 K	–	37.8
308.15 K	1365.6	–
309.93 K	–	37.69
313.15 K	1361.4	–
314.79 K	–	37.48
318.15 K	1357.3	–
320.39 K	–	37.28
323.15 K	1353.7	–
326.4 K	–	37.09
328.15 K	1349.7	–
330.16 K	–	36.91
333.15 K	1343.9	–
335.64 K	–	36.68
340.58 K	–	36.5

CCCCCC[N+](C)(C)C.O=S(=O)([N-]S(=O)(=O)C(F)(F)F)C(F)(F)F [hexyltrimethylammonium bis[(trifluoromethyl)sulfonyl]imide]
Conditions	mass density [kg/m3]	surface tension liquid-gas [mN/m]
298.15 K	1310.6	–
300.35 K	–	35.88
302.35 K	–	35.71
303.15 K	1307.8	–
304.25 K	–	35.57
307.65 K	–	35.32
308.15 K	1304	–
311.05 K	–	35.09
313.15 K	1299.5	–
314.75 K	–	34.86
318.15 K	1295.7	34.64
322.55 K	–	34.36
323.15 K	1292.1	–
326.25 K	–	34.14
328.15 K	1287.9	–
331.35 K	–	33.86
333.15 K	1283.9	–
333.35 K	–	33.77

CCCCCCCCCCCCCC[P+](CCCCCC)(CCCCCC)CCCCCC.N#C[N-]C#N [tetradecyl(trihexyl)phosphonium dicyanamide]
Conditions	mass density [kg/m3]	surface tension liquid-gas [mN/m]
295.06 K	–	35.22
298.15 K	920.9	–
299.35 K	–	34.85
302.95 K	–	34.58
303.15 K	917.3	–
305.04 K	–	34.45
308.15 K	916.3	–
310.4 K	–	34.06
313.15 K	913.1	–
314.39 K	–	33.8
318.15 K	910.1	–
318.38 K	–	33.5
322.47 K	–	33.24
323.15 K	907.5	–
326.14 K	–	32.94
327.42 K	–	32.61
328.15 K	905	–
333.02 K	–	32.2
333.15 K	902.4	–
338.6 K	–	31.66
343.13 K	–	31.33
348.47 K	–	31.09

CCCCCCCCCCCCCC[P+](CCCC)(CCCC)CCCC.CCCCCCCCCCCCc1ccccc1S(=O)(=O)[O-] [tributyl(tetradecyl)phosphonium 2-dodecylbenzenesulfonate]
Conditions	mass density [kg/m3]
298.15 K	938.4
303.15 K	937.1
308.15 K	933.7
313.15 K	931.1
318.15 K	928.4
323.15 K	925.4
328.15 K	922.8
333.15 K	920.1

CCCC[P+](CC)(CCCC)CCCC.CCOP(=O)([O-])OCC [tributylethylphosphonium diethylphosphate]
Conditions	mass density [kg/m3]	surface tension liquid-gas [mN/m]
296.66 K	–	33.6
298.15 K	997.8	–
302.18 K	–	33.29
303.15 K	995.7	–
307.24 K	–	33.14
308.15 K	992.8	–
312.34 K	–	32.82
313.15 K	989.7	–
318.15 K	985.8	–
318.36 K	–	32.24
323.15 K	982.6	–
323.59 K	–	31.62
328.15 K	979.5	–
329.67 K	–	31.14
333.15 K	975.8	–
336.36 K	–	30.66
343.4 K	–	30.15
347.75 K	–	29.82
350.86 K	–	29.59

CCCCCC[N+](CC)(CC)CC.O=S(=O)([N-]S(=O)(=O)C(F)(F)F)C(F)(F)F [triethylhexylammonium bis((trifluoromethyl)sulfonyl)imide]
Conditions	mass density [kg/m3]	surface tension liquid-gas [mN/m]
298.15 K	1279.3	–
299.54 K	–	35.17
302.65 K	–	34.9
303.15 K	1275.4	–
307.05 K	–	34.45
308.15 K	1271.9	–
313.15 K	1267.6	–
313.73 K	–	33.88
318.15 K	1264.4	–
319.84 K	–	33.49
323.15 K	1260.8	–
324.94 K	–	32.98
328.15 K	1257.4	–
329.34 K	–	32.72
333.15 K	1253	–
335.04 K	–	32.47
341.93 K	–	31.98
347.11 K	–	31.45

CCCCCCCCCCCCCC[P+](CCCCCC)(CCCCCC)CCCCCC.[Cl-] [trihexyl(tetradecyl)phosphonium chloride]
Conditions	mass density [kg/m3]	surface tension liquid-gas [mN/m]
297.99 K	–	33.62
298.15 K	882.6	–
302.94 K	–	33.15
303.15 K	880.1	–
307.4 K	–	32.72
308.15 K	877.9	–
312.09 K	–	32.3
313.15 K	875.4	–
315.84 K	–	32.01
318.15 K	873.1	–
319.49 K	–	31.74
323.15 K	869.4	–
323.95 K	–	31.43
327.96 K	–	31.15
328.15 K	866.9	–
332.81 K	–	30.76
333.15 K	864.4	–
337.27 K	–	30.42
342.09 K	–	30
347.68 K	–	29.55
